According to ChEMBL document CHEMBL1138896, “2,3,7-Trisubstituted pyrazolo[1,5-d][1,2,4]triazines: functionally selective GABAA alpha3-subtype agonists” (Bioorg Med Chem Lett, 2006):

Legend:
[1] = target: T1, GABA-A receptor; alpha-3/beta-3/gamma-2 (Homo sapiens, UniProt P18507+P28472+P34903); experiment: Inhibition of [3H]Ro15-1788 binding to human recombinant GABA-Aalpha3 plus beta-3-gamma-2 receptor expressed in L(tk-) cells; type: cell-based
T1 sequence (P18507 whole entry): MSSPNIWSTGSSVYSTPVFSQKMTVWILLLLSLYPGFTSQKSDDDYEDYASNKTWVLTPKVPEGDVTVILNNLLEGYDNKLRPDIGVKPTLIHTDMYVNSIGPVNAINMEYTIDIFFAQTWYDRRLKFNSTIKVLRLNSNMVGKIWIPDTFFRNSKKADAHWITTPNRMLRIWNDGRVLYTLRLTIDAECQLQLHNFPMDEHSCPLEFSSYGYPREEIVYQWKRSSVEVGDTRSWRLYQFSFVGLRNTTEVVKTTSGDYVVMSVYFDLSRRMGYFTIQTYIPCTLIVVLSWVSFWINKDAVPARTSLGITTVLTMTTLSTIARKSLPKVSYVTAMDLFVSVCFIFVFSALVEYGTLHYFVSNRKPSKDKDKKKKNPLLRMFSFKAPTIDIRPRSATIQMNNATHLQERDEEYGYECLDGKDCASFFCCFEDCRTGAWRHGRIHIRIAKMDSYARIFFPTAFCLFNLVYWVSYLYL
T1 sequence (P28472 whole entry): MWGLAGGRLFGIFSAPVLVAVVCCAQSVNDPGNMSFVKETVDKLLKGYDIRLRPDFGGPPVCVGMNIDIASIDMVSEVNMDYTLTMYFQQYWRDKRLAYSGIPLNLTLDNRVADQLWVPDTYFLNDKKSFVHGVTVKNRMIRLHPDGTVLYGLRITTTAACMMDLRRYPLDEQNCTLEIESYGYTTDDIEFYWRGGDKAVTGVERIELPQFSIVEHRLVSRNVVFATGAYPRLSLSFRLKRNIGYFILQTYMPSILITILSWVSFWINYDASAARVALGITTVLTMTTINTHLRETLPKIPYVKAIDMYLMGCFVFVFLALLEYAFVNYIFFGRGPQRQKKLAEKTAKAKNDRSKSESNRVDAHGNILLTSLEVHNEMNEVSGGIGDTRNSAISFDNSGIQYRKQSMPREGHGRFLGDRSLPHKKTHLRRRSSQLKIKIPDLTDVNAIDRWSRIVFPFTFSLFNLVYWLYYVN
T1 sequence (P34903 whole entry): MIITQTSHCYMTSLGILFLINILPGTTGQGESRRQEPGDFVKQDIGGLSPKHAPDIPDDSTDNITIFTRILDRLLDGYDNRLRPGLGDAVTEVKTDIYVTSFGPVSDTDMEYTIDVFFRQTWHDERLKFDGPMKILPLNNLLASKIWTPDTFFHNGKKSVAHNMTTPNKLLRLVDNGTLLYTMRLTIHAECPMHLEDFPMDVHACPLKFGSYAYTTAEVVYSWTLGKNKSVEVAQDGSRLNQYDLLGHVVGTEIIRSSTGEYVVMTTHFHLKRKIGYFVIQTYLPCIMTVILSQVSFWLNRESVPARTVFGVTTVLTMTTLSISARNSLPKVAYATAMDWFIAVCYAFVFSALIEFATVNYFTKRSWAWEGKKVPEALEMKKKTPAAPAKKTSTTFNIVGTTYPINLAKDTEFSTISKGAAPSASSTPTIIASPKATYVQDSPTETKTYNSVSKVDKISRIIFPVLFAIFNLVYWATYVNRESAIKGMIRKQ

[2] = target: GABA-A receptor; alpha-3/beta-3/gamma-2 (Homo sapiens) (UniProt P18507+P28472+P34903); experiment: Efficacy against human recombinant GABA-Aalpha3 plus beta-3-gamma-2 receptor expressed in L(tk-) cells assessed as modulation of chloride ion by whole cell patch clamp method relative to chlorodiazepoxide; type: functional, cell-based
[3] = target: GABA-A receptor; alpha-1/beta-3/gamma-2 (Homo sapiens) (UniProt P14867+P18507+P28472); experiment: Efficacy against human recombinant GABA-Aalpha1 plus beta-3-gamma-2 receptor expressed in L(tk-) cells assessed as modulation of chloride ion by whole cell patch clamp method relative to chlorodiazepoxide; type: functional, cell-based
[4] = target: T2, GABA-A receptor; alpha-1/beta-3/gamma-2 (Homo sapiens, UniProt P14867+P18507+P28472); experiment: Inhibition of [3H]Ro15-1788 binding to human recombinant GABA-Aalpha1 plus beta-3-gamma-2 receptor expressed in L(tk-) cells; type: cell-based
T2 sequence (P14867 whole entry): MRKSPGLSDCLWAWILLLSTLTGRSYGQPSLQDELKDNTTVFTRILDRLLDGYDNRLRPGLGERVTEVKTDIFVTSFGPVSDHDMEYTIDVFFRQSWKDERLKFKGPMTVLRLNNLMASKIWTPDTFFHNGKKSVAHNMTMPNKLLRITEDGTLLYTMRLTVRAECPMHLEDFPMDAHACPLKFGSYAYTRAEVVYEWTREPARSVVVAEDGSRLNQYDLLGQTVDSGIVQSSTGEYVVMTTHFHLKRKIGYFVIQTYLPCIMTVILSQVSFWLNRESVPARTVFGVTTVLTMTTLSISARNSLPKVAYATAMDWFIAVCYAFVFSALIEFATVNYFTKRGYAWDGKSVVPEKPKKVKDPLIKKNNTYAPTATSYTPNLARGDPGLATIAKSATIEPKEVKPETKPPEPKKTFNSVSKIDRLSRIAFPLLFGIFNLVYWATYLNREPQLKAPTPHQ
T2 sequence (P18507 whole entry): T1 sequence (P18507 whole entry)
T2 sequence (P28472 whole entry): T1 sequence (P28472 whole entry)

[5] = Oral bioavailability in rat; type: ADME, organism-based; details: in vivo
Rattus norvegicus = experiment: Receptor occupancy in rat, po; type: functional

Ki [1] [nM]	Efficacy [2]	Efficacy [3]	Ki [4] [nM]	bioavailability [5] [%]	SMILES	Activity (Rattus norvegicus) [mg/kg]
0.52	0.55	0.29			Cn1ncnc1COc1nn2c(-c3c(F)cccc3F)nncc2c1-c1ccccc1F	
> 33					Cn1ncnc1COc1nn2c(-c3ccccc3F)nncc2c1-c1ccccc1C(F)(F)F	
6.6	0.5	0.5			Cn1ncnc1COc1nn2c(-c3ccccc3F)nncc2c1-c1cccc(CO)c1	
2.7	0.55	0.45			Cn1ncnc1COc1nn2c(-c3c(F)ccc(F)c3F)nncc2c1-c1ccccc1F	
0.45	0.4	0.22			Cn1ncnc1COc1nn2c(-c3ccccc3F)nncc2c1-c1ccccc1F	
0.55	0.45	0.23			Cn1ncnc1COc1nn2c(-c3ccccc3F)nncc2c1-c1c(F)cccc1F	
14	0.38	0.42			Cn1ncnc1COc1nn2c(-c3ccccc3F)nncc2c1-c1cccc(N)c1	
2	0.78	0.42			Cn1ncnc1COc1nn2c(-c3ccc(F)cc3F)nncc2c1-c1ccccc1F	
0.14	0.19	0.1			Cn1ncnc1COc1nn2c(-c3ccccc3F)nncc2c1-c1ccncc1	
0.11	0.16	-0.09			Cn1ncnc1COc1nn2c(-c3ccccc3F)nncc2c1-c1ccco1	
0.54	0.46	0.3			Cn1ncnc1COc1nn2c(-c3ccccc3F)nncc2c1-c1cccc(C(F)(F)F)c1	
2.7	0.18	0.03			Cn1ncnc1COc1nn2c(-[n+]3ccncc3)nncc2c1-c1ccccc1F	
23					Cc1ccccc1-c1c(OCc2ncnn2C)nn2c(-c3ccccc3F)nncc12	

Continued, compound first:

SMILES	Ki [1] [nM]	Efficacy [2]	Efficacy [3]	Ki [4] [nM]	bioavailability [5] [%]	Activity (Rattus norvegicus) [mg/kg]
Cn1ncnc1COc1nn2c(-c3cccnc3)nncc2c1-c1ccccc1F	1.1	0.16	0.15			
Cn1ncnc1COc1nn2c(-c3ccccc3F)nncc2c1-c1cccc(C#N)c1	1.6	0.28	0.35			
Cn1ncnc1COc1nn2c(-c3ccccc3F)nncc2c1-c1ccccc1	0.77	0.44	0.18	0.39		
Cn1ncnc1COc1nn2c(-c3ccccc3F)nncc2c1-c1ccccn1	1.4	0.56	0.45			
Cn1ncnc1COc1nn2c(-c3ccccc3F)nncc2c1-c1cncnc1	> 33					
Cn1ncnc1COc1nn2c(-c3ccc(F)cc3)nncc2c1-c1ccccc1F	0.94	0.6	0.36			
Cn1ncnc1COc1nn2c(-c3ccccc3F)nncc2c1-c1cccc(Cl)c1	1.1	0.45	0.35			
Cn1ncnc1COc1nn2c(-c3ccccc3F)nncc2c1-c1cc(F)cc(F)c1	> 33					
Cn1ncnc1COc1nn2c(-c3ccccc3F)nncc2c1-c1cccc(F)c1F	1.5	0.4	0.27			
Cn1ncnc1COc1nn2c(-c3ccccc3F)nncc2c1-c1ccc(F)cc1	6.3	0.31	0.09			
Cn1ncnc1COc1nn2c(-c3ccccc3F)nncc2c1-c1ccccc1Cl	8.7	0.32	0.32			
Cn1ncnc1COc1nn2c(-c3cccs3)nncc2c1-c1ccccc1	1.6	0.19	-0.03			
Cn1ncnc1COc1nn2c(-c3ccco3)nncc2c1-c1ccccc1F	0.85	0.19	0.01			
Cn1ncnc1COc1nn2c(-c3ccccc3F)nncc2c1-c1cc(F)ccc1F	0.2	0.46	0.29			
Cn1ncnc1COc1nn2c(-c3c(F)cc(F)cc3F)nncc2c1-c1ccccc1F	2.6	0.59	0.37			
Cn1ncnc1COc1nn2c(-c3cc(F)ccc3F)nncc2c1-c1ccccc1F	1.3	0.52	0.52			
Cn1ncnc1COc1nn2c(-c3ccccc3F)nncc2c1-c1cccs1	0.1	0.12	0.01			
Cn1ncnc1COc1nn2c(-c3ccccc3F)nncc2c1-c1ccsc1	0.1	0.21	-0.02		32	0.54
Cn1ncnc1COc1nn2c(-c3ccoc3)nncc2c1-c1ccccc1F	0.61	-0.12	0.07			
Cn1ncnc1COc1nn2c(-c3ccccc3F)nncc2c1-c1cccnc1	0.98	0.52	0.35			
Cn1ncnc1COc1nn2c(-c3ccccc3Cl)nncc2c1-c1ccccc1F	21	0.02	-0.02			
Cn1ncnc1COc1nn2c(-c3ccccc3F)nncc2c1-c1cccc(F)c1	0.28	0.46	0.23			
Cn1ncnc1COc1nn2c(-c3cccc(F)c3)nncc2c1-c1ccccc1F	1.2	0.57	0.38			
Cn1ncnc1COc1nn2c(C3CC3)nncc2c1-c1ccccc1F	0.36	-0.01	-0.08			
